In ChEMBL document CHEMBL3826967, “Small molecule non-peptide inhibitors of botulinum neurotoxin serotype E: Structure-activity relationship and a pharmacophore model” (Bioorg Med Chem, 2016):

The compounds below were run against T1, Botulinum neurotoxin type E (Clostridium botulinum) (UniProt Q00496) (assay: Inhibition of endopeptidase activity of Clostridium botulinum BoNT/E light chain using SNAP-25 as substrate at 20 uM after 15 mins by HPLC analysis).
T1 sequence (whole entry): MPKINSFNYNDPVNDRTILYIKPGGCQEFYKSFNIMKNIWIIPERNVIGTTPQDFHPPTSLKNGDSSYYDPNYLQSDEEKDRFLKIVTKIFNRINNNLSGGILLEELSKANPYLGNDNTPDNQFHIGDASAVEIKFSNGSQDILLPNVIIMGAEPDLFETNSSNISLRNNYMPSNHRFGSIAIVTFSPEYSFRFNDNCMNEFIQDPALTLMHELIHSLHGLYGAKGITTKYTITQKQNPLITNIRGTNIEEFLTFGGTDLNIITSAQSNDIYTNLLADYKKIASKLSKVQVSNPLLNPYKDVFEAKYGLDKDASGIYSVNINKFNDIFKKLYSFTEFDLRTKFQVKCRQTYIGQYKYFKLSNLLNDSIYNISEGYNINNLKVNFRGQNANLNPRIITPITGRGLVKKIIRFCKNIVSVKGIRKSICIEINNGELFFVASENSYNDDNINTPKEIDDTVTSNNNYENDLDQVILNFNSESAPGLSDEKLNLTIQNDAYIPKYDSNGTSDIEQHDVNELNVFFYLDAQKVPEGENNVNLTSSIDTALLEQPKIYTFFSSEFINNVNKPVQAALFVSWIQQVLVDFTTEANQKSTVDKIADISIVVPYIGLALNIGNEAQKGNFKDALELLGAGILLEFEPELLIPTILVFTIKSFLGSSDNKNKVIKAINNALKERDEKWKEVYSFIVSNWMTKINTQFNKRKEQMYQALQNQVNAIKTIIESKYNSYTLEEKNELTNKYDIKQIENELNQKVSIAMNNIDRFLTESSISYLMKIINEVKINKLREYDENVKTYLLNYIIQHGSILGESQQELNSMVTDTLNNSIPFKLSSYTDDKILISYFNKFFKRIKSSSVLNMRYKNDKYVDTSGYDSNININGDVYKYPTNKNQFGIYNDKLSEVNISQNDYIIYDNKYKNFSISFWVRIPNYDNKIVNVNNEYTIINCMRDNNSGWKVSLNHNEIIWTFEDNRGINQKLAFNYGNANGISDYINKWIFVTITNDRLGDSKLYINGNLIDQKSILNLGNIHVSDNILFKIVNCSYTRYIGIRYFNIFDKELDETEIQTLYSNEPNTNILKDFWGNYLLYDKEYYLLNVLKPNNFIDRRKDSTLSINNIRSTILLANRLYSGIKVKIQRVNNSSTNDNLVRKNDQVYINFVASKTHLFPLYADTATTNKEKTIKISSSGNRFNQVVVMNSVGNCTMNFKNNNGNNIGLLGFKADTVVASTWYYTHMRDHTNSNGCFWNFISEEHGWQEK

Compared with `O=c1c2cc([N+](=O)[O-])ccc2c2ccc([N+](=O)[O-])cc2c(=O)n1-c1ccc2c(c1)Cc1ccccc1-2`, `O=c1c2cc(Cl)ccc2c2ccc(Cl)cc2c(=O)n1-c1ccc2c(c1)Cc1ccccc1-2` is higher in inhibition: 24.7% for the first, 48% for the second.

Going from `O=C(O)c1ccccc1C(=O)c1ccc2c3c(cccc13)CC2` to `O=C(O)c1ccccc1C(=O)c1ccc2c(c1)Cc1ccccc1-2`, the inhibition rises from 11.5% to 80.1%.

Compared with `CC(=O)Nc1cc2c(cc1N)-c1ccccc1C2`, `c1ccc2c(c1)Cc1ccccc1-2` is higher in inhibition: 13.7% for the first, 17.3% for the second.

Going from `CNc1ccc(C(=O)c2ccccc2C(=O)O)cc1[N+](=O)[O-]` to `O=C(O)c1ccccc1C(=O)c1ccc2c(c1)CCC2`, the inhibition rises from 14.1% to 16.3%.

First: O=C(O)c1cc([N+](=O)[O-])ccc1-c1ccc([N+](=O)[O-])cc1C(=O)Nc1ccc2c(c1)Cc1ccccc1-2
Second: O=C(O)c1cc(Cl)ccc1-c1ccc(Cl)cc1C(=O)Nc1ccc2c(c1)Cc1ccccc1-2
The inhibition of the first is lower: 82% for the first, 88.3% for the second.

Going from `O=C(O)c1ccccc1-c1ccccc1C(=O)Nc1ccc2c(c1)Cc1cc(F)ccc1-2` to `COc1ccc2c(c1)Cc1cc(NC(=O)c3ccccc3-c3ccccc3C(=O)O)ccc1-2`, the inhibition falls from 47.6% to 20.9%.

First: O=C(O)C1CCCCC1C(=O)Nc1ccc2c(c1)Cc1ccccc1-2 (centres undefined)
Second: O=C1c2ccccc2-c2ccc(NC(=O)C3CCCCC3C(=O)O)cc21 (centres undefined)
The inhibition of the first is lower: 12% for the first, 18.3% for the second.

First: O=C(O)c1ccccc1C(=O)CCC(=O)c1ccccc1C(=O)O
Second: O=C(O)c1ccccc1C(=O)c1ccccc1
The inhibition of the first is higher: 21.2% for the first, 15.9% for the second.

First: O=C(Nc1ccc2c(c1)C(=O)c1ccccc1-2)c1ccccc1
Second: O=C(O)c1ccccc1C(=O)Nc1ccc2c(c1)C(=O)c1ccccc1-2
The inhibition of the first is lower: 12.7% for the first, 14.8% for the second.

First: Cc1cccc(C)c1NC(=S)NNC(=O)c1ccncc1
Second: O=C(NNC(=S)Nc1ccccc1Cl)c1ccncc1
The inhibition of the first is higher: 28% for the first, 19% for the second.

Compared with `O=C(O)c1cc(Cl)ccc1-c1ccc(Cl)cc1C(=O)Nc1ccc2c(c1)Cc1cc(Cl)cc(Cl)c1-2`, `O=c1c2cc(Cl)ccc2c2ccc(Cl)cc2c(=O)n1-c1ccc2c(c1)Cc1cc(Cl)cc(Cl)c1-2` is lower in inhibition: 79.1% for the first, 68.9% for the second.

First: O=C(O)c1ccccc1C(=O)c1ccc(O)cc1O
Second: O=C(O)c1ccccc1C(=O)c1cc(Cl)cc(Cl)c1O
The inhibition of the first is lower: 14.7% for the first, 19.2% for the second.

First: O=C(O)c1ccccc1C(=O)c1ccc(Cl)cc1
Second: O=C(O)c1ccc(C(=O)c2ccccc2C(=O)O)cc1
The inhibition of the first is lower: 0% for the first, 13.7% for the second.

First: O=C(O)/C=C/C(=O)Nc1ccc2c(c1)Cc1cc([N+](=O)[O-])ccc1-2
Second: O=C(O)c1ccccc1-c1ccccc1C(=O)Nc1ccc2c(c1)Cc1ccccc1-2
The inhibition of the first is lower: 19.5% for the first, 37.2% for the second.

Going from `O=C(Nc1ccccc1)c1cc2cc3ccccc3cc2cc1O` to `O=C(O)c1ccccc1-c1ccccc1C(=O)Nc1ccc2c(c1)C(O)c1ccccc1-2` (centres undefined), the inhibition falls from 70.1% to 20%.

Going from `O=C(O)c1cccc(F)c1C(=O)c1ccc2ccccc2c1` to `O=C(O)c1ccccc1C(=O)c1ccc2oc(O)nc2c1`, the inhibition falls from 43.9% to 35%.

Compared with `O=C(O)c1ccccc1C(=O)Nc1cc2c(cc1Br)-c1ccccc1C2=O`, `O=C(O)c1ccccc1-c1ccccc1C(=O)Nc1ccc2c(c1)C(=O)c1ccccc1-2` is lower in inhibition: 26.2% for the first, 20.2% for the second.

Compared with `Cc1cc2c(cc1C(=O)c1ccccc1C(=O)O)CCCC2`, `O=C(O)c1ccccc1C(=O)c1ccc(-c2ccccc2)cc1` is higher in inhibition: 24.8% for the first, 37.8% for the second.

Work on `O=C1c2ccccc2-c2cc(Br)c(NC(=O)C3CCCCC3C(=O)O)cc21` (centres undefined) yielded an inhibition of 19.3%.

What follows are compounds tested against T1, Botulinum neurotoxin type E (Clostridium botulinum) (assay: (§1) Inhibition of endopeptidase activity of Clostridium botulinum BoNT/E light chain using SNAP-25 as substrate after 15 mins by HPLC analysis).

For `O=C(O)c1cc(Cl)ccc1-c1ccc(Cl)cc1C(=O)Nc1ccc2c(c1)Cc1cc(Cl)cc(Cl)c1-2`, the inhibition was “Dose-dependent effect”.

The compounds below were run against T2, Botulinum neurotoxin type E (Clostridium botulinum, UniProt Q00496) (assay: as §1).
T2 sequence (Q00496 whole entry): T1 sequence (whole entry)

`O=C(O)c1cc([N+](=O)[O-])ccc1-c1ccc([N+](=O)[O-])cc1C(=O)Nc1ccc2c(c1)Cc1ccccc1-2` and `O=C(O)c1cc(Cl)ccc1-c1ccc(Cl)cc1C(=O)Nc1ccc2c(c1)Cc1ccccc1-2` are within 1.5-fold of each other in IC50: 2.7 µM for the first, 3.2 µM for the second.

Compared with `O=C(O)c1cc(Cl)ccc1-c1ccc(Cl)cc1C(=O)Nc1ccc2c(c1)Cc1cc(Cl)cc(Cl)c1-2`, `O=c1c2cc(Cl)ccc2c2ccc(Cl)cc2c(=O)n1-c1ccc2c(c1)Cc1cc(Cl)cc(Cl)c1-2` is 3.3-fold higher in IC50: 3 µM for the first, 9.8 µM for the second.

`O=C(Nc1ccccc1)c1cc2cc3ccccc3cc2cc1O` gave an IC50 of 2.4 µM.

Each compound was assayed against T2, Botulinum neurotoxin type E (assay: Inhibition of protease activity of Clostridium botulinum BoNT/E light chain using SNAP-25 as substrate after 15 mins by Dixon plot analysis).

Work on `O=C(O)c1ccccc1C(=O)c1ccc2c(c1)Cc1ccccc1-2` yielded a Ki of 1290 nM.
